Results published in patent US10934297B2, “5-heteroaryl substituted indazole-3-carboxamides and preparation and use thereof” (Samumed, LLC, priority 2018, dated 2021).

Columns and labels:
[1] = test system: SW480 colon carcinoma cells; experiment: Cell viability assay (CellTiter-Glo) in SW480 colon carcinoma cells; assay type: cell-based, human; conditions: Homo sapiens, 96 h, four days
Method in brief: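 SW480 cells stably carrying an Sp5-promoter luciferase reporter were plated at 2,000 cells/well in DMEM with 1% FBS and treated with compound for four days at 37 °C. Viability was read as ATP luminescence with CellTiter-Glo after about 12 min; DMSO-treated wells served as controls.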

DYRK1A kinase = DYRK1A kinase (Homo sapiens (Human), UniProt Q13627); experiment: DYRK1A kinase assay (Ser/Thr 18 peptide Z-lyte FRET); assay type: biochemical; conditions: read-out: EC50 (method: IC50)
Method in brief: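 This Z-lyte FRET assay reads the coumarin/fluorescein emission ratio. Compounds were incubated with the reaction mixture for 1 h at room temperature, followed by development reagent for a further 1 h at room temperature, in duplicate.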

IL-6 = IL-6 inhibition in LPS-stimulated human peripheral blood mononuclear cells (HTRF); assay type: cell-based; conditions: Homo sapiens, PBMC; for EC50: huPBMCs, LPS 50 ng/mL, 22 hours, IL-6 HTRF; for inhibition at 10 µM: read-out: percent inhibition at 10 μM
Method in brief: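 Fresh human PBMCs at 1×10e6 cells/mL in RPMI/1% FBS were stimulated with 50 ng/mL E. coli 0111:B4 LPS added 2 h after compound, then incubated 22 h at 37° C. Secreted IL-6 was measured by HTRF (665/620 nm ratio) after 3 h at room temperature. EC50 was taken from activity normalized to DMSO-treated cells.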

[2] = test system: primary human fibroblasts derived from IPF patients (LL29 cells); experiment: Inhibition of the fibrotic process: αSMA staining in TGF-β1 treated LL29 fibroblasts; assay type: cell-based; conditions: Homo sapiens, Fibroblast, 96 h; LL29 cells, TGF-β1 20 ng/mL, 4 days, % αSMA positive cells
Method in brief: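 LL29 fibroblasts from IPF patients, in F12 medium with 1% FBS, treated with TGF-β1 plus compound; TGF-β1 with DMSO as positive control, DMSO alone as negative control. After 4 days' incubation, SYTOX green nucleic acid stain added at 1 μM final, 30 min at room temperature.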

[3] = test system: Wnt activity (Sp5-Luc reporter in SW480 cells); experiment: Screening assay for Wnt activity: Sp5-Luc reporter gene assay in SW480 colon carcinoma cells; assay type: cell-based, human; conditions: Homo sapiens, 36 to 48 hours
Method in brief: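 SW480 colon carcinoma cells stably carrying a lentiviral luciferase reporter driven by an Sp5 promoter with eight TCF/LEF sites, plated at 4,000 cells/well in DMEM with 1% FBS. Compound exposure for 36–48 h at 37 °C, then luminescence read. Signals normalized to DMSO; EC50 from four-parameter nonlinear fit.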

GSK3β kinase = GSK3β kinase (Homo sapiens (Human), UniProt P49841); experiment: GSK3β kinase assay (Ser/Thr 09 peptide Z-lyte FRET); assay type: biochemical; conditions: read-out: EC50 (method: IC50)
Method in brief: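 Non-radioactive Z-lyte FRET read-out, kinase activity expressed as coumarin/fluorescein emission ratio. Compounds incubated with the reaction mixture one hour at room temperature in duplicate, then development buffer added for another hour. IC50 from non-linear regression of dose-response curves.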

[4] = test system: primary human mesenchymal stem cells (hMSCs); experiment: Tenocyte differentiation assay (SCXA-positive cells) in hMSCs; assay type: cell-based; conditions: for EC50: Homo sapiens, Mesenchymal stem cells, 96 h, hMSCs, 4 days, SCXA positive cells; for percent in parentheses under EC50 >100: given for EC50 >100 μM, meaning not defined in this example
Method in brief: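 Passage 3–6 hMSCs were compound-treated, fixed in 4% formaldehyde and stained overnight at 4 °C with anti-SCXA antibody; SCXA-positive cells were counted by imaging. Counts were normalized to the mean of 12 DMSO wells as fold change, averaged over 3 replicate wells per concentration, and curve-fitted for EC50.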

Sequence of GSK3β kinase (P49841 whole entry): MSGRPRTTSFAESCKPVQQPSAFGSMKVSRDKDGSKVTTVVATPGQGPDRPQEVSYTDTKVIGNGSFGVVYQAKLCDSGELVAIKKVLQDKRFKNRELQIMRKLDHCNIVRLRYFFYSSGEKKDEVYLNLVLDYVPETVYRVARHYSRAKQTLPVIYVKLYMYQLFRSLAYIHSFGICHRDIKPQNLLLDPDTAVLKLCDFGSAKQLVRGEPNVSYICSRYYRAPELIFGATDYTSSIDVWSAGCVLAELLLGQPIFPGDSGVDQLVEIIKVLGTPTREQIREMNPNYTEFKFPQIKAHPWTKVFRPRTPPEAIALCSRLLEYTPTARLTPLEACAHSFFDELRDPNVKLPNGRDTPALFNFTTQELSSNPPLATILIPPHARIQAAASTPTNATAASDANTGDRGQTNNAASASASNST

SMILES	EC50 [1] [nM]	IC50 (DYRK1A kinase) [nM]	EC50 (IL-6) [nM]	EC50 [2] [nM]	EC50 [3] [nM]	IC50 (GSK3β kinase) [nM]	EC50 [4] [nM]	percent in parentheses under EC50 >100 [4]	inhibition at 10 µM (IL-6) [%]
Cn1cc(-c2cc3c(C(=O)Nc4cccc(OC5CCNCC5)c4)n[nH]c3cc2F)cn1 [Compound 150, 6-Fluoro-5-(1-methyl-1H-pyrazol-4-yl)-N-(3-(piperidin-4-yloxy)phenyl)-1H-indazole-3-carboxamide]	214	4	3570	317	248	52	> 100000	(17.4%)	
CNC(=O)c1ccc(NC(=O)c2n[nH]c3ccc(-c4cnn(C5CCN(C)CC5)c4)cc23)cn1 [Compound 128, N-(6-(Methylcarbamoyl)pyridin-3-yl)-5-(1-(1-methylpiperidin-4-yl)-1H-pyrazol-4-yl)-1H-indazole-3-carboxamide]	493	5	3280	439	180	633	5720		
Cc1nc(-c2ccc3[nH]nc(C(=O)Nc4ccc(OC5CCN(C)CC5)cc4)c3c2)cs1 [Compound 162, N-(4-((1-Methylpiperidin-4-yl)oxy)phenyl)-5-(2-methylthiazol-4-yl)-1H-indazole-3-carboxamide]	4600	141	7690	2640	> 10000	5060	> 100000	(12.7%)	
CN1CCC(n2cc(-c3ccc4[nH]nc(C(=O)Nc5ccc(F)cc5)c4c3)cn2)CC1 [Compound 159, N-(4-Fluorophenyl)-5-(1-(1-methylpiperidin-4-yl)-1H-pyrazol-4-yl)-1H-indazole-3-carboxamide]	810	23	2820	1370	680	548	> 100000	(15.5%)	
Cc1cc(-c2ccc3[nH]nc(C(=O)Nc4ccc(OC5CCN(C)CC5)cc4)c3c2)sn1 [Compound 164, 5-(3-Methylisothiazol-5-yl)-N-(4-((1-methylpiperidin-4-yl)oxy)phenyl)-1H-indazole-3-carboxamide]	268	3	1330	305	1380	88	> 100000	(33.1%)	
CN1CCC(Oc2ccc(NC(=O)c3n[nH]c4ccc(-c5cnn(C)c5)cc34)cn2)CC1 [Compound 124, 5-(1-Methyl-1H-pyrazol-4-yl)-N-(6-((1-methylpiperidin-4-yl)oxy)pyridin-3-yl)-1H-indazole-3-carboxamide]	170	1	989	101	140	23	315		
CN1CCN(c2cccc(NC(=O)c3n[nH]c4cc(F)c(-c5cnn(C)c5)cc34)c2)CC1 [Compound 149, 6-Fluoro-5-(1-methyl-1H-pyrazol-4-yl)-N-(3-(4-methylpiperazin-1-yl)phenyl)-1H-indazole-3-carboxamide]	331	1	> 10000	> 10000	217	49	> 100000	(36.0%)	44.7
Cc1ncc(-c2ccc3[nH]nc(C(=O)Nc4ccc(OC5CCN(C)CC5)cc4)c3c2)n1C [Compound 161, 5-(1,2-Dimethyl-1H-imidazol-5-yl)-N-(4-((1-methylpiperidin-4-yl)oxy)phenyl)-1H-indazole-3-carboxamide]	833	5	3400	3720	642	120	> 100000	(31.8%)	
CC(C)CN1CC[C@H](NC(=O)c2n[nH]c3ccc(-c4cn[nH]c4)cc23)[C@@H](F)C1 [Compound 145, N-((3 S,4S)-3-Fluoro-1-isobutylpiperidin-4-yl)-5-(1H-pyrazol-4-yl)-1H-indazole-3-carboxamide]	372	37	1140	100	345	41	863		
CC(C)CN1CC[C@H](NC(=O)c2n[nH]c3c(F)cc(-c4cnn(C)c4)cc23)[C@@H](F)C1 [Compound 35, 7-Fluoro-N-((3S,4S)-3-fluoro-1-isobutylpiperidin-4-yl)-5-(1-methyl-1H-pyrazol-4-yl)-1H-indazole-3-carboxamide]	8280	261	> 10000	288	345	157	2070		9.2
Cn1cc(-c2ccc3[nH]nc(C(=O)Nc4cnn(C5CCNCC5)c4)c3c2)cn1 [Compound 140, 5-(1-Methyl-1H-pyrazol-4-yl)-N-(1-(piperidin-4-yl)-1H-pyrazol-4-yl)-1H-indazole-3-carboxamide]	2600	2	1250	301	713	5	> 100000	(12.6%)	
CC(C)CN1CC[C@H](NC(=O)c2n[nH]c3ccc(-c4cnn(C)c4)cc23)[C@H](F)C1 [Compound 30, N-((3R,4S)-3-Fluoro-1-isobutylpiperidin-4-yl)-5-(1-methyl-1H-pyrazol-4-yl)-1H-indazole-3-carboxamide]	> 10000	12	> 10000	> 10000	> 10000	61	1470		
CC(C)CN1CC[C@H](NC(=O)c2n[nH]c3cc(F)c(-c4cnn(C)c4)cc23)[C@@H](F)C1 [Compound 34, 6-Fluoro-N-((3S,4S)-3-fluoro-1-isobutylpiperidin-4-yl)-5-(1-methyl-1H-pyrazol-4-yl)-1H-indazole-3-carboxamide]	1840	16	3110	439	> 10000	50	1320		
CN1CCC(n2cc(NC(=O)c3n[nH]c4ccc(-c5cnn(C)c5)cc34)cn2)CC1 [Compound 141, 5-(1-Methyl-1H-pyrazol-4-yl)-N-(1-(1-methylpiperidin-4-yl)-1H-pyrazol-4-yl)-1H-indazole-3-carboxamide]	64	1	382	103	79	4	930		
CC(C)CN1CC[C@H](NC(=O)c2n[nH]c3ccc(-c4cnn(C5CC5)c4)cc23)[C@@H](F)C1 [Compound 99, 5-(1-Cyclopropyl-1H-pyrazol-4-yl)-N-((3 S,4S)-3-fluoro-1-isobutylpiperidin-4-yl)-1H-indazole-3-carboxamide]	5180	813	3280	855	840	68	2830		
CN1CCC(Oc2ccc(NC(=O)c3n[nH]c4cc(F)c(-c5cn(C)nc5CO)cc34)cc2)CC1 [Compound 153, 6-Fluoro-5-(3-(hydroxymethyl)-1-methyl-1H-pyrazol-4-yl)-N-(4-((1-methylpiperidin-4-yl)oxy)phenyl)-1H-indazole-3-carboxamide]	> 10000	1210	> 10000	> 10000	> 10000	> 10000	> 100000	(20.7%)	3.7
Cc1ncc(NC(=O)c2n[nH]c3cc(F)c(-c4cnn(C5CCN(C)CC5)c4)cc23)s1 [Compound 127, 6-Fluoro-5-(1-(1-methylpiperidin-4-yl)-1H-pyrazol-4-yl)-N-(2-methylthiazol-5-yl)-1H-indazole-3-carboxamide]	93	4	786	48	100	245	2490		
